Source: ChEMBL document CHEMBL5260828, “Amphiphilic glycoconjugates as potential anti-cancer chemotherapeutics” (Eur J Med Chem, 2018)

Assays:
[1] = Cytotoxicity against human RXF 486L cells assessed as inhibition of cell proliferation by propidium iodide assay; format: functional, cell-based
[2] = system: HCT-116; assay: Cytotoxicity against human HCT-116 cells assessed as inhibition of cell proliferation by propidium iodide assay; format: functional, cell-based
[3] = system: LNCaP; assay: Cytotoxicity against human LNCaP cells assessed as inhibition of cell proliferation by propidium iodide assay; format: functional, cell-based
[4] = system: CWR22R; assay: Cytotoxicity against human 22Rv1 cells assessed as inhibition of cell proliferation by propidium iodide assay; format: functional, cell-based
[5] = system: SF-268; assay: Cytotoxicity against human SF-268 cells assessed as inhibition of cell proliferation by propidium iodide assay; format: functional, cell-based
[6] = system: PANC-1; assay: Cytotoxicity against human PANC-1 cells assessed as inhibition of cell proliferation by propidium iodide assay; format: functional, cell-based
[7] = system: LXFL 529; assay: Cytotoxicity against human LXFL 529 cells assessed as inhibition of cell proliferation by propidium iodide assay; format: functional, cell-based
[8] = system: RXF 944; assay: Cytotoxicity against human RXF 944 cells assessed as inhibition of cell proliferation by propidium iodide assay; format: functional, cell-based
[9] = system: LXF-289 cell line; assay: Cytotoxicity against human LXF-289 cell line assessed as inhibition of cell proliferation by propidium iodide assay; format: functional, cell-based
[10] = system: DU-145; assay: Cytotoxicity against human DU-145 cells assessed as inhibition of cell proliferation by propidium iodide assay; format: functional, cell-based
[11] = system: PC-3M; assay: Cytotoxicity against human PC-3M cells assessed as inhibition of cell proliferation by propidium iodide assay; format: functional, cell-based
[12] = system: MAXF401 cell line; assay: Cytotoxicity against human MAXF401 cells assessed as inhibition of cell proliferation by propidium iodide assay; format: functional, cell-based
[13] = system: MEXF276L; assay: Cytotoxicity against human MEXF276L cells assessed as inhibition of cell proliferation by propidium iodide assay; format: functional, cell-based
[14] = system: MEXF514; assay: Cytotoxicity against human MEXF514 cells assessed as inhibition of cell proliferation by propidium iodide assay; format: functional, cell-based
[15] = system: Lung LXF 629L tumor cell line; assay: Cytotoxicity against human Lung LXF 629L tumor cell line assessed as inhibition of cell proliferation by propidium iodide assay; format: functional, cell-based
[16] = system: NCI-H460; assay: Cytotoxicity against human NCI-H460 cells assessed as inhibition of cell proliferation by propidium iodide assay; format: functional, cell-based
[17] = Cytotoxicity against human MEXF 462NL cells assessed as inhibition of cell proliferation by propidium iodide assay; format: functional, cell-based
[18] = system: RXF 393; assay: Cytotoxicity against human RXF 393 cells assessed as inhibition of cell proliferation by propidium iodide assay; format: functional, cell-based
[19] = system: MCF7; assay: Cytotoxicity against human MCF7 cells assessed as inhibition of cell proliferation by propidium iodide assay; format: functional, cell-based
[20] = Cytotoxicity against human OVXF 1619L cells assessed as inhibition of cell proliferation by propidium iodide assay; format: functional, cell-based
[21] = system: OVCAR-3; assay: Cytotoxicity against human OVCAR-3 cells assessed as inhibition of cell proliferation by propidium iodide assay; format: functional, cell-based
[22] = system: HT-29; assay: Cytotoxicity against human HT-29 cells assessed as inhibition of cell proliferation by propidium iodide assay; format: functional, cell-based
[23] = Cytotoxicity against human GXF 251L cells assessed as inhibition of cell proliferation by propidium iodide assay; format: functional, cell-based
[24] = Cytotoxicity against human OVXF 899L cells assessed as inhibition of cell proliferation by propidium iodide assay; format: functional, cell-based
[25] = system: T-24; assay: Cytotoxicity against human T24 cells assessed as inhibition of cell proliferation by propidium iodide assay; format: functional, cell-based
[26] = Cytotoxicity against African green monkey Vero cells incubated for 48 hrs by SRB colorimetric assay; format: toxicity, cell-based, Chlorocebus sabaeus
[27] = system: BC1 cell line; assay: Cytotoxicity against human BC1 cell line incubated for 48 hrs by SRB colorimetric assay; format: functional, cell-based; settings: BC1, 48 h
[28] = system: KB; assay: Cytotoxicity against human KB cells incubated for 48 hrs by SRB colorimetric assay; format: functional, cell-based
[29] = system: NCI-H187; assay: Cytotoxicity against human NCI-H187 cells incubated for 48 hrs by SRB colorimetric assay; format: functional, cell-based; settings: NCI-H187, 48 h
[30] = system: HCT-116/VM46; assay: Cytotoxicity against human HCT-116/VM46 cells; format: functional, cell-based
[31] = system: HCT-116; assay: Cytotoxicity against human HCT-116 cells; format: functional, cell-based
[32] = system: A2780; assay: Cytotoxicity against human A2780 cells; format: functional, cell-based
[33] = system: NCI-H23; assay: Growth inhibition of human NCI-H23 cells; format: functional
[34] = system: NUGC-3; assay: Growth inhibition of human NUGC-3 cells; format: functional
[35] = system: Caco-2; assay: Cytotoxicity against human Caco-2 cells incubated upto 96 hrs by MTT assay; format: functional, cell-based; settings: Caco-2, 96 h
[36] = system: HT-29; assay: Cytotoxicity against human HT-29 cells incubated upto 96 hrs by MTT assay; format: functional, cell-based; settings: HT-29, 96 h
[37] = system: T84; assay: Cytotoxicity against human T84 cells incubated upto 96 hrs by MTT assay; format: functional, cell-based; settings: T84, 96 h

C/C=C(\C)[C@H](O[C@@H]1O[C@H](CO)[C@@H](O)[C@H](O)[C@H]1O)[C@H](C)/C=C(C)/C=C/C/C(C)=C/Cc1nc(OC)cc(O)c1C
2000 nM: IC50 [1] | IC50 [2] | IC50 [3] | IC50 [4] | IC50 [5] | IC50 [6] | IC50 [7] | IC50 [8] | IC50 [9] | IC50 [10] | IC50 [11] | IC50 [12] | IC50 [13] | IC50 [14] | IC50 [15] | IC50 [16] | IC50 [17] | IC50 [18] | IC50 [19] | IC50 [20] | IC50 [21] | IC50 [22] | IC50 [23] | IC50 [24] | IC50 [25]

CO[C@H]1[C@H](O)[C@@H](O)[C@H](O[C@H](C[C@@]2(C)[C@H](C)CCC(=O)[C@@H]2C)/C(C)=C/Cc2c(O)c(Cl)c(C)c(C=O)c2O)O[C@@H]1CO
8.4 µg/mL: IC50 [27]
19 µg/mL: IC50 [28]
7.9 µg/mL: IC50 [29]
6.9 µg/mL: IC50 at 48 h [26]

CO[C@]12C=C[C@](C)(O1)[C@@H](OC(=O)/C=C/c1cn(C)cn1)C[C@H]1C(C)=CC[C@H](C(C)C)[C@H]1/C=C\2CO[C@@H]1OC[C@@H](O)[C@@H](O)[C@@H]1OC(C)=O [ELEUTHEROBIN]
10 nM: IC50 [30] | IC50 [31] | IC50 [32]

CC(C)[C@H](CCCCCCCCCCCCC(=O)NCC(=O)O)O[C@@H]1O[C@H](COC(=O)CCC(=O)O)[C@@H](O)[C@H](O)[C@H]1O
17.8 µg/mL: GI50 [34]
25.2 µg/mL: GI50 [33]

C=C(C)[C@H]1CC=C(CO)CC1
78500 nM: IC50 [35]
158000 nM: IC50 [37]
100000 nM: IC50 [36]
